Measurements published in PMC3855394, “Bright Fluorescence Monitoring System Utilizing Zoanthus sp. Green Fluorescent Protein (ZsGreen) for Human G-Protein-Coupled Receptor Signaling in Microbial Yeast Cells” (PLoS ONE, 2013).

Experiments:
[1] = system: human neurotensin receptor subtype-1 (hNTSR1); assay: GPCR signaling assay using membrane-tethered peptide ligands, hNTSR1; format: cell-based; conditions: strain IMFD-72ZsD, pGK421-NTSR1, flow cytometry; for fold increase in fluorescence intensity compared with α-factor: after 24 h cultivation, pH-adjusted SD medium, mean of 10,000 cells, n = 3; for rank order of ZsGreen fluorescence: membrane-tethered peptides, 24 h
Protocol: (§1) The cultured cells were washed and suspended in distilled water. The cell suspensions were observed using a BZ-9000 fluorescence microscope (Keyence, Osaka, Japan). Green fluorescence images were acquired with a 470/40 band-pass filter for excitation and a 535/50 band-pass filter for emission. Digital image intensities of green fluorescence were carried out, from four experiments each, with the ImageJ software (freely downloadable from the ImageJ website, http://rsbweb.nih.gov/ij/) and expressed as Integrated Density (IntDen) or its percent.
(§2) Flow cytometry measurements of green fluorescence followed previous procedures. In brief, GFP was detected using a BD FACSCanto II flow cytometer equipped with a 488-nm blue laser (Becton, Dickinson and Company, Franklin Lakes, NJ, USA); the data were analyzed using BD FACSDiva software (v5.0; Becton, Dickinson and Company). The GFP fluorescence signal was collected through a 530/30 nm band-pass filter and the GFP-A mean of 10,000 cells was defined as ‘green fluorescence intensity’.
GPCR signaling assays using membrane-tethered peptide ligands basically followed a previous procedure with some modifications. In brief, to assay signal activation from human GPCRs, yeast strains harboring the pGK421-based GPCR expression plasmids and pGK426-based peptide display plasmids were grown in SD medium (supplemented as needed) at 30 °C overnight, then the cells then were inoculated into 5 mL of the respective fresh SDM71 medium to give an initial OD600 = 0.1. The cells were incubated at 30 °C on a rotary shaker at 150 rpm, then the yeast cells were observed using a fluorescence microscope, diluted with 1 ml of sheath fluid, and fluorescence was analyzed by flow cytometry.
Data were analyzed using KaleidaGraph4.0. Statistical significance of the differences between more than two groups was calculated by one-way ANOVA, followed by Tukey’s post test. Z’ factor, a commonly used parameter reflecting the robustness and the quality of assays, was determined as follows: Z’ factor = 1 ‒ 3(SDpositive control + SDnegative control)/ (meanpositive control ‒ meannegative control), where “SD” represents standard deviation of multiple replicates of an assay.

[2] = cited from earlier work
Excerpt: Studies on the structure-activity relationship of neurotensin verified that positive charges at positions 8 and 9 are important but not prerequisite for its bioactivity. There is charge complementarity between NTS8–13 and its binding pocket: the positively- ...

[3] = system: human neurotensin receptor subtype-1 (hNTSR1); assay: GPCR signaling assay with exogenously added ligand, hNTSR1; format: cell-based; conditions: 4 h; for fold higher fluorescence than in the absence of agonist / fold increase in fluorescence intensity in response to agonist stimulation: pGK421-NTSR1, with vs without 10 μM NTS, 30 °C, pH 7.1 SD medium, flow cytometry, mean of 10,000 cells, n = 3
Protocol: as §1, §2
(§3) GPCR signaling assays with exogenously added ligands basically followed previous procedures. In brief, to assay signal activation from human GPCRs, yeast strains harboring the pGK421-based plasmids were grown in SD medium (supplemented as needed) at 30 °C overnight, then the cells then were inoculated into 5 mL of the respective fresh SD medium to give an initial OD600 = 0.03. The cells were incubated at 30 °C on a rotary shaker at 150 rpm for up to 18 h and harvested, washed, and resuspended in water to give an OD600 = 10. […] The plates were incubated at 30 °C with shaking (150 rpm) for 4 h, then the yeast cells were observed using a fluorescence microscope, diluted with 1 mL of sheath fluid, and fluorescence was analyzed by flow cytometry.

[4] = system: human neurotensin receptor subtype-1 (hNTSR1); assay: Quantitative digital image analysis of ZsGreen fluorescence (microscopy, ImageJ), hNTSR1; format: cell-based; conditions: strain IMFD-72ZsD, pGK421-NTSR1; NTS at several concentrations, 4 h; 100 cells, n = 4
Protocol: as §1, §3

[5] = system: human somatostatin receptor subtype-5 (hSSTR5); assay: GPCR signaling assay with exogenously added ligand, hSSTR5 (FIG1-promoter GFP reporter yeast); format: cell-based; conditions: 4 h; for fluorescence microscopy observation: 10 μM SST; for fold increase in fluorescence on agonist addition / fold increase in fluorescence intensity in response to agonist stimulation: pGK421-SSTR5, with vs without 10 μM SST, 30 °C, pH 7.1 SD medium, flow cytometry, mean of 10,000 cells, n = 3
Protocol: as §1, §2, §3

[6] = system: human somatostatin receptor subtype-2 (hSSTR2); assay: GPCR signaling assay with exogenously added ligand, hSSTR2; format: cell-based; conditions: 4 h; for fold higher fluorescence on agonist addition / fold increase in fluorescence intensity on agonist stimulation: pGK421-SSTR2, with vs without 10 μM SST, 30 °C, pH 7.1 SD medium, flow cytometry, mean of 10,000 cells, n = 3
Protocol: as §1, §2, §3

[7] = strain IMFD-70ZsD (ZsGreen, Gpa1p)
[8] = strain IMFD-72ZsD (ZsGreen, Gi3tp)

## KIPYIL [NMN, NMN–Flag–Flo42 in pGK426; membrane-tethered neuromedin N]
[1]
  fold increase in fluorescence intensity compared with α-factor: > 1.5 fold
  rank order of ZsGreen fluorescence: NTS8–13 > NTS > NMN > α-factor

## KIPYIL [neuromedin N, neurotensin-like peptide, KIPYIL (cited from literature)]
[2]
  biological activity: very weak biological activity

## RRPYIL [NTS8–13, NTS 8-13 -Flag–Flo42 in pGK426; membrane-tethered NTS8–13]
[1]
  fold increase in fluorescence intensity compared with α-factor: greater than 35 fold
  rank order of ZsGreen fluorescence: NTS8–13 > NTS > NMN > α-factor

## RRPYIL [Neurotensin-(8-13), pharmacophore of neurotensin, RRPYIL (cited from literature)]
[2]
  potency and efficacy versus full-length NTS: higher potency and efficacy than full-length NTS

## neurotensin [NTS]
[3]; hNTSR1-expressing IMFD-72ZsD, 10 μM NTS, 40× and 100× objective
  fluorescence microscopy observation: clearly exhibited changes in green fluorescence and morphology
[3]; strain IMFD-70 (EGFP, Gpa1p)
  fold higher fluorescence than in the absence of agonist: 1.3 fold
[3]; [7]
  fold increase in fluorescence intensity in response to agonist stimulation: 7.9 fold
[3]; strain IMFD-72 (EGFP, Gi3tp)
  fold higher fluorescence than in the absence of agonist: 2.3 fold
[3]; [8]
  fold increase in fluorescence intensity in response to agonist stimulation: 45 fold
[4]
  digital intensity of green fluorescence (IntDen), concentration dependence: varied in a NTS-dependent manner

## somatostatin [SST]
[5]; hSSTR5-expressing IMFD-70ZsD and IMFD-72ZsD (ZsGreen), 40× and 100× objective
  fluorescence microscopy observation: exhibited changes in green fluorescence and morphology
[5]; hSSTR5-expressing IMFD-70 and IMFD-72 (EGFP)
  fluorescence microscopy observation: the fluorescence was too weak to allow observation with a fluorescence microscope
[5]; strain IMFD-70 (EGFP, Gpa1p)
  fold increase in fluorescence on agonist addition: 3.9 fold
[5]; strain IMFD-70Zs (single ZsGreen substitution, Gpa1p)
  fold increase in fluorescence intensity in response to agonist stimulation: 33 fold
[5]; strain IMFD-70ZsD (double ZsGreen substitution, Gpa1p)
  fold increase in fluorescence intensity in response to agonist stimulation: 83 fold
[5]; strain IMFD-72 (EGFP, Gi3tp)
  fold increase in fluorescence on agonist addition: 5.6 fold
[5]; strain IMFD-72Zs (single ZsGreen substitution, Gi3tp)
  fold increase in fluorescence intensity in response to agonist stimulation: 65 fold
[5]; strain IMFD-72ZsD (double ZsGreen substitution, Gi3tp)
  fold increase in fluorescence intensity in response to agonist stimulation: 104 fold
[6]; hSSTR2-expressing IMFD-72ZsD, 10 μM SST, 40× and 100× objective
  fluorescence microscopy observation: clearly exhibited changes in green fluorescence and morphology
[6]; strain IMFD-70 (EGFP, Gpa1p)
  fold higher fluorescence on agonist addition: 3.0 fold
[6]; [7]
  fold increase in fluorescence intensity on agonist stimulation: 36 fold
[6]; strain IMFD-72 (EGFP, Gi3tp)
  fold higher fluorescence on agonist addition: 4.6 fold
[6]; [8]
  fold increase in fluorescence intensity on agonist stimulation: 81 fold
